Patent US20110190269A1, “GAMMA SECRETASE MODULATORS” (priority 2010, published 2011)

Test system: γ-secretase
Test: Cellular γ-secretase assay (inhibition of Aβ42 secretion)
Assay type: cell-based
Conditions: human neuroglioma H4 cells overexpressing human APP, 22 hrs incubation
Procedure, shortened: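 H4 neuroglioma cells overexpressing human APP got a ten-point compound dilution (0.4% DMSO final) for 22 h at 37 °C. Secreted Aβ42 in the supernatant was measured by electrochemiluminescence sandwich immunoassay (capture biotinylated 6E10, detection ruthenylated BAP15). IC50 came from a nonlinear regression fit.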

| EC50 | SMILES |
| --- | --- |
| 137 nM | COc1cc(Nc2nc3c(-c4ccc(F)cc4F)cccn3n2)ccc1-n1cnc(C)c1 [Example 132, 8-(2,4-difluorophenyl)-N-(3-methoxy-4-(4-methyl-1H-imidazol-1-yl)phenyl)-[1,2,4]triazolo[1,5-a]pyridin-2-amine] |
| 45 nM | COc1cc(Nc2nc3c(-c4ccc(F)cc4Cl)cccn3n2)ccc1-c1ccnc(C)c1 [Example 133, [8-(2-Chloro-4-fluoro-phenyl)-[1,2,4]triazolo[1,5-a]pyridin-2-yl]-[3-methoxy-4-(2-methyl-pyridin-4-yl)-phenyl]-amine] |
| 141 nM | COc1cc(Nc2nc3c(-c4ccc(F)c(F)c4)ccc(C(F)(F)F)n3n2)ccc1-n1cnc(C)c1 [Example 135, 8-(3,4-difluorophenyl)-N-(3-methoxy-4-(4-methyl-1H-imidazol-1-yl)phenyl)-5-(trifluoromethyl)-[1,2,4]triazolo[1,5-a]pyridin-2-amine] |
| 152 nM | COc1cc(Nc2nc3c(Oc4ccccc4)cccn3n2)ccc1-n1cnc(C)c1 [Example 136, N-(3-methoxy-4-(4-methyl-1H-imidazol-1-yl)phenyl)-8-phenoxy-[1,2,4]triazolo[1,5-a]pyridin-2-amine] |
| 266 nM | COc1cc(Nc2nc3c(Oc4cccc(Cl)c4)cccn3n2)ccc1-n1cnc(C)c1 [Example 137, 8-(3-chlorophenoxy)-N-(3-methoxy-4-(4-methyl-1H-imidazol-1-yl)phenyl)-[1,2,4]triazolo[1,5-a]pyridin-2-amine] |
| 311 nM | COc1cc(Nc2nc3c(N4CCC(F)CC4)cccn3n2)ccc1-n1cnc(C)c1 [Example 139, 8-(4-fluoropiperidin-1-yl)-N-(3-methoxy-4-(4-methyl-1H-imidazol-1-yl)phenyl)-[1,2,4]triazolo[1,5-a]pyridin-2-amine] |
| 180 nM | COc1cc(Nc2nc3c(N4CCC(C(F)(F)F)CC4)cccn3n2)ccc1-n1cnc(C)c1 [Example 140, N-(3-methoxy-4-(4-methyl-1H-imidazol-1-yl)phenyl)-8-(4-(trifluoromethyl)piperidin-1-yl)-[1,2,4]triazolo[1,5-a]pyridin-2-amine] |
| 375 nM | COc1cc(Nc2nc3c(N4CCC(F)(F)CC4)cccn3n2)ccc1-n1cnc(C)c1 [Example 141, 8-(4,4-difluoropiperidin-1-yl)-N-(3-methoxy-4-(4-methyl-1H-imidazol-1-yl)phenyl)-[1,2,4]triazolo[1,5-a]pyridin-2-amine] |
| 232 nM | COc1cc(Nc2nc3n(n2)CCOC3c2ccccc2)ccc1-n1cnc(C)c1 (stereo not shown) [Example 142, N-(3-methoxy-4-(4-methyl-1H-imidazol-1-yl)phenyl)-8-phenyl-6,8-dihydro-5H-[1,2,4]triazolo[5,1-c][1,4]oxazin-2-amine] |
| 185 nM | COc1cc(Nc2nc3n(n2)CCCN3c2ccc(F)c(F)c2)ccc1-n1cnc(C)c1 [Example 143, 4-(3,4-Difluorophenyl)-N-(3-methoxy-4-(4-methyl-1H-imidazol-1-yl)phenyl)-4,5,6,7-tetrahydro-[1,2,4]triazolo[1,5-a]pyrimidin-2-amine] |
| 69 nM | COc1cc(Nc2nc3c(-c4ccc(Cl)cc4)cc(C)c(C(C)(C)O)n3n2)ccc1-n1cnc(C)c1 [Example 144, 2-{8-(4-Chloro-phenyl)-2-[3-methoxy-4-(4-methyl-imidazol-1-yl)-phenylamino]-6-methyl-[1,2,4]triazolo[1,5-a]pyridin-5-yl}-propan-2-ol] |
| 27 nM | COc1cc(Nc2nc3c(-c4ccc(F)c(F)c4)ccc(C(C)(C)O)n3n2)ccc1-n1cnc(C)c1 [Example 145, 2-{8-(3,4-Difluoro-phenyl)-2-[3-methoxy-4-(4-methyl-imidazol-1-yl)-phenylamino]-[1,2,4]triazolo[1,5-a]pyridin-5-yl}-propan-2-ol] |
| 69 nM | COc1cc(Nc2nc3c(-c4ccc(F)c(F)c4)cc(C4CC4)cn3n2)ccc1-n1cnc(C)c1 [Example 146, [6-Cyclopropyl-8-(3,4-difluoro-phenyl)-[1,2,4]triazolo[1,5-a]pyridin-2-yl]-[3-methoxy-4-(4-methyl-imidazol-1-yl)-phenyl]-amine] |
| 33 nM | COc1cc(Nc2nc3c(-c4ccc(F)c(Cl)c4)cc(C4CC4)cn3n2)ccc1-n1cnc(C)c1 [Example 147, [8-(3-Chloro-4-fluoro-phenyl)-6-cyclopropyl-[1,2,4]triazolo[1,5-a]pyridin-2-yl]-[3-methoxy-4-(4-methyl-imidazol-1-yl)-phenyl]-amine] |
| 90 nM | COc1cc(Nc2nc3c(-c4ccc(F)cc4Cl)cc(C4CC4)cn3n2)ccc1-n1cnc(C)c1 [Example 148, [8-(2-Chloro-4-fluoro-phenyl)-6-cyclopropyl-[1,2,4]triazolo[1,5-a]pyridin-2-yl]-[3-methoxy-4-(4-methyl-imidazol-1-yl)-phenyl]-amine] |
| 370 nM | COc1cc(Nc2nc3c(C4=CCOCC4)cccn3n2)ccc1-n1cnc(C)c1 [Example 149, [8-(3,6-Dihydro-2H-pyran-4-yl)-[1,2,4]triazolo[1,5-a]pyridin-2-yl]-[3-methoxy-4-(4-methyl-imidazol-1-yl)-phenyl]-amine] |
